Reference: patent US10604555B2, “GIP derivatives and uses thereof” (priority 2018, dated 2020)
Read-outs that look alike come from different tables or passages of the source. Side-chain parts run from the residue outwards. [ ]: non-standard residue; d: D form. The star is where a group is joined. C20 diacid = O=C(O)CCCCCCCCCCCCCCCCCCC(=O)*; Nle = CCCC[C@H](N)C(=O)O; AEEA = NCCOCCOCC(=O)O; Aib = CC(C)(N)C(=O)O

Legend:
[1] = ThT fibrillation assay (physical stability); type: physicochemical; conditions: 250 μM, pH 7.4, 37° C., 45 hours of incubation
Description: The Thioflavin T assay was performed as outlined in Schlein (2017), AAPS J, 19(2), 397-408.
This has traditionally been measured by visual inspection of the sample. However, that kind of measurement is very cumbersome and depending on the observer. Therefore, the application of a small molecule indicator probe is much more advantageous. Thioflavin T (ThT) is such a probe and has a distinct fluorescence signature when binding to fibrils [Naiki et al. (1989) Anal. Biochem. 177, 244-249; LeVine (1999) Methods. Enzymol. 309, 274-284].
The time course for fibril formation can be described by a sigmoidal curve with the following expression [Nielsen et al. (2001) Biochemistry 40, 6036-6046]:
Here, F is the ThT fluorescence at the time t. The constant t0 is the time needed to reach 50% of maximum fluorescence. The two important parameters describing fibril formation are the lag-time calculated by t0−2τ and the apparent rate constant kapp 1/τ.
Few of those intermediates nucleate to form a template onto which further intermediates may assembly and the fibrillation proceeds. The lag-time corresponds to the interval in which the critical mass of nucleus is built up and the apparent rate constant is the rate with which the fibril itself is formed.
Samples are prepared freshly before each assay. The drug substance was solved with 250 μM of the GIP derivative in 8 mM phosphate, 14 mg/mL propylene glycol, 58 mM phenol, pH 7.4. The pH of the sample was adjusted to the desired value using appropriate amounts of concentrated NaOH and HCl. Thioflavin T was added to the samples from a stock solution in H2O to a final concentration of 1 μM.
Sample aliquots of 200 μl were placed in each well of a 96 well microtiter plate (Packard OptiPlate™-96, white polystyrene). Four replica of each sample (corresponding to one test condition) was placed in one column of wells. The plate was sealed with Scotch Pad (Qiagen).
Incubation, shaking and measurement of the ThT fluorescence emission were done in a Fluoroskan Ascent FL fluorescence platereader (Thermo Labsystems). […] Fluorescence measurement was done using excitation through a 444 nm filter and measurement of emission through a 485 nm filter.
Each run was initiated by incubating the plate at the assay temperature for 10 min. The plate was measured every 20 minutes for a desired period of time. Between each measurement, the plate was shaken and heated as described.
After completion of the ThT assay the replica of each sample was pooled and centrifuged at 20000 rpm for 30 minutes at 18° C. The supernatant was filtered through a 0.22 μm filter and an aliquot was transferred to a HPLC vial. The concentration of the filtered sample relative to the initial sample (in percentage) was reported as the recovery.
The measurement points were saved in Microsoft Excel format for further processing and curve drawing and fitting was performed using GraphPad Prism. […] The data points were a mean of the four replica and shown with standard deviation error bars. Only data obtained in the same experiment (i.e. samples on the same plate) were presented in the same graph ensuring a relative measure of fibrillation between experiments.
The data set may be fitted to Eq. (1).

[2] = Chemical stability: HMWP formation by SEC-MS; type: physicochemical; conditions: 37° C., 4 weeks, 250 μM, pH 7.4
Description: The aim of this study is to determine the chemical stability of GIP derivative compositions. As a measure of stability of the GIP derivative composition, the formation of high molecular weight peptide formation (% HMWP) as a function of time was analysed by size-exclusion chromatography (SEC-MS). Further, the purity loss of the GIP derivative compositions was measured by LCMS. Samples for chemical stability assays were freshly prepared before each assay. […] The pH of the sample was adjusted to the desired value using appropriate amounts of concentrated NaOH and HCl. […] Formation of covalent oligomers (HMWPs) was analysed and identified by a SEC-MS method. […] The LC system was coupled to both a TUV detector operated at 215 nm, 10 Hz and a high resolution QToF mass spectrometer from Waters (Synapt G2S) operated in positive ion mode and m/z range of 100 to 4000 with normal resolution setting. Lock mass correction against Leu-Enkephalin was done every 31 sec. Spectra were processed in MassLynx version 4.1 and MaxEnt deconvoluted.

[3] = Chemical stability: purity loss by LCMS; type: physicochemical; conditions: 37° C., 4 weeks, 250 μM, pH 7.4
Description: The aim of this study is to determine the chemical stability of GIP derivative compositions. As a measure of stability of the GIP derivative composition, the formation of high molecular weight peptide formation (% HMWP) as a function of time was analysed by size-exclusion chromatography (SEC-MS). Further, the purity loss of the GIP derivative compositions was measured by LCMS. Samples for chemical stability assays were freshly prepared before each assay. […] The pH of the sample was adjusted to the desired value using appropriate amounts of concentrated NaOH and HCl. […] The column oven was kept at 55° C. […] The solvents were pumped from a binary solvent manager system and mixed on the high pressure side in a mixer with a volume of 50 μl. The gradient and flow can be seen in table 4: [table] A Flow-through-needle auto sampler at 8° C. was used to inject 1 μl of each sample. The effluent passed through a tunable UV detector (TUV) tuned to 215 nm. The outlet from the UV detector passed to the electrospray source of the mass spectrometer. The capillary was held at 3 kV and dry nitrogen gas was purged at a flow of 750 I/h and a temperature of 250° C. The source block was kept at 120° C. and the large bore cone was flushed with nitrogen at 50 I/h with standard electrode potentials on the rest of the instrument. The MS was operated in high resolution mode with a nominal resolution of 35000. The ToF analyser was operated in ADC mode with an m/z window from 100-2000.

[4] = cited from earlier work
[5] = type: physicochemical; conditions: pH 7.4

| Compound | ThT Assay Lag time [1] [h] | HMWP formation (%/month) [2] [%/month] | Purity loss (%/month) [3] [%/month] | half-life of hGIP(1-42) measured in man ([4]; Deacon et al., J. Clin. Endocrinol. & Metab.) [min] | half-life of hGIP(1-42) measured in man ([4]; Meier et al., Diabetes) | solubility at given pH [5] |
| --- | --- | --- | --- | --- | --- | --- |
| CC[C@H](C)[C@H](NC(=O)[C@H](CO)NC(=O)[C@H](Cc1ccc(O)cc1)NC(=O)[C@H](CC(=O)O)NC(=O)[C@H](CO)NC(=O)[C@@H](NC(=O)[C@H](Cc1ccccc1)NC(=O)[C@@H](NC(=O)CNC(=O)[C@H](CCC(=O)O)NC(=O)[C@H](C)NC(=O)[C@@H](N)Cc1ccc(O)cc1)[C@@H](C)O)[C@@H](C)CC)C(=O)N[C@@H](C)C(=O)N[C@@H](CCSC)C(=O)N[C@@H](CC(=O)O)C(=O)N[C@@H](CCCCN)C(=O)N[C@H](C(=O)N[C@@H](Cc1c[nH]cn1)C(=O)N[C@@H](CCC(N)=O)C(=O)N[C@@H](CCC(N)=O)C(=O)N[C@@H](CC(=O)O)C(=O)N[C@@H](Cc1ccccc1)C(=O)N[C@H](C(=O)N[C@@H](CC(N)=O)C(=O)N[C@@H](Cc1c[nH]c2ccccc12)C(=O)N[C@@H](CC(C)C)C(=O)N[C@@H](CC(C)C)C(=O)N[C@@H](C)C(=O)N[C@@H](CCC(N)=O)C(=O)N[C@@H](CCCCN)C(=O)NCC(=O)N[C@@H](CCCCN)C(=O)N[C@@H](CCCCN)C(=O)N[C@@H](CC(N)=O)C(=O)N[C@@H](CC(=O)O)C(=O)N[C@@H](Cc1c[nH]c2ccccc12)C(=O)N[C@@H](CCCCN)C(=O)N[C@@H](Cc1c[nH]cn1)C(=O)N[C@@H](CC(N)=O)C(=O)N[C@H](C(=O)N[C@H](C(=O)N[C@@H](CCC(N)=O)C(=O)O)[C@@H](C)O)[C@@H](C)CC)C(C)C)[C@@H](C)CC [hGIP(1-42), reference compound] | 0.33 | 2.0 | 73.1 | ~7 | about 5 min | – |
| N{1}-acetyl,N{Epsilon-24}-[2-[2-[2-[[2-[2-[2-[[4-[(19-carboxynonadecanoylamino)methyl]cyclohexanecarbonyl]amino]ethoxy]ethoxy]acetyl]amino]ethoxy]ethoxy]acetyl]-[D-Tyr1,Aib2,Nle14,Arg18,Lys24,Pro31]-hGIP(1-31) amide (Ac-[dY][Aib]EGTFISDYSIA[Nle]DKIRQQDFVK([AEEA-AEEA-4‑(aminomethyl)cyclohexanecarbonyl-C20 diacid])WLLAQKP-NH2) [Compound 44] | – | – | – | – | – | **Compound not soluble at given pH. |
